Laboratory results published in ChEMBL document CHEMBL5291721, “A preclinical secondary pharmacology resource illuminates target-adverse drug reaction associations of marketed drugs” (Nat Commun, 2023).

How the values were obtained:
[1] = target: T1, Alpha-2A adrenergic receptor (Homo sapiens, UniProt P08913); format: functional, cell-based
T1 sequence (P08913 whole entry): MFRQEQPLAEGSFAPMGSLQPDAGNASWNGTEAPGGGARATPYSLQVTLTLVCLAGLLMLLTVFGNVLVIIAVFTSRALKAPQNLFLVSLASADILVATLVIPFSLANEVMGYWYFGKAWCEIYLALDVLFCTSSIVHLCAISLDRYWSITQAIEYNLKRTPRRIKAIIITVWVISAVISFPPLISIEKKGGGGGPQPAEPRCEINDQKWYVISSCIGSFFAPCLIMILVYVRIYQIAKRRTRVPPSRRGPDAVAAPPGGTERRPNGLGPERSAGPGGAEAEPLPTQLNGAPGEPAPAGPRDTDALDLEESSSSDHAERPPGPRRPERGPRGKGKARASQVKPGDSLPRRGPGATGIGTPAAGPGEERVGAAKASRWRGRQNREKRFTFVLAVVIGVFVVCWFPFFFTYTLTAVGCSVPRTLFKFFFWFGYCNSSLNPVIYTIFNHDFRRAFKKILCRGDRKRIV

[2] = target: T2, Gastrin/cholecystokinin type B receptor (Homo sapiens, UniProt P32239)
T2 sequence (P32239 whole entry): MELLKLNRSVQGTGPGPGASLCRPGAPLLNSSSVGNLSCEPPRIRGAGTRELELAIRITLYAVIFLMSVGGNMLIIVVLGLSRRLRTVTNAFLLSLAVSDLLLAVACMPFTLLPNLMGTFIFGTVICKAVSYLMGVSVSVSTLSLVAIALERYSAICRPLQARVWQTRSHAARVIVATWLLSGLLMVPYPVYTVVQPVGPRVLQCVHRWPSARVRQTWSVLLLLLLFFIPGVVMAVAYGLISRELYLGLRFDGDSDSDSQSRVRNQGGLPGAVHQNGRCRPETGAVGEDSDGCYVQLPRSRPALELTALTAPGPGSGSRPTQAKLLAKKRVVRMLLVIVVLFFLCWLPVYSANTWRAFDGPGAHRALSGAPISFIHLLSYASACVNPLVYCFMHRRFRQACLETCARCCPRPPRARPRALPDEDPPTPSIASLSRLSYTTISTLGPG

[3] = target: D(1A) dopamine receptor (Homo sapiens, UniProt P21728); format: functional, cell-based
[4] = target: Gamma-aminobutyric acid receptor subunit alpha-1 (Rattus norvegicus, UniProt P62813); format: functional
[5] = target: Melanocortin receptor 3 (Homo sapiens, UniProt P41968)
[6] = target: 3',5'-cyclic-AMP phosphodiesterase 4D (Homo sapiens, UniProt Q08499); format: functional
[7] = target: T3, Progesterone receptor (Homo sapiens, UniProt P06401); format: functional
T3 sequence (P06401 whole entry): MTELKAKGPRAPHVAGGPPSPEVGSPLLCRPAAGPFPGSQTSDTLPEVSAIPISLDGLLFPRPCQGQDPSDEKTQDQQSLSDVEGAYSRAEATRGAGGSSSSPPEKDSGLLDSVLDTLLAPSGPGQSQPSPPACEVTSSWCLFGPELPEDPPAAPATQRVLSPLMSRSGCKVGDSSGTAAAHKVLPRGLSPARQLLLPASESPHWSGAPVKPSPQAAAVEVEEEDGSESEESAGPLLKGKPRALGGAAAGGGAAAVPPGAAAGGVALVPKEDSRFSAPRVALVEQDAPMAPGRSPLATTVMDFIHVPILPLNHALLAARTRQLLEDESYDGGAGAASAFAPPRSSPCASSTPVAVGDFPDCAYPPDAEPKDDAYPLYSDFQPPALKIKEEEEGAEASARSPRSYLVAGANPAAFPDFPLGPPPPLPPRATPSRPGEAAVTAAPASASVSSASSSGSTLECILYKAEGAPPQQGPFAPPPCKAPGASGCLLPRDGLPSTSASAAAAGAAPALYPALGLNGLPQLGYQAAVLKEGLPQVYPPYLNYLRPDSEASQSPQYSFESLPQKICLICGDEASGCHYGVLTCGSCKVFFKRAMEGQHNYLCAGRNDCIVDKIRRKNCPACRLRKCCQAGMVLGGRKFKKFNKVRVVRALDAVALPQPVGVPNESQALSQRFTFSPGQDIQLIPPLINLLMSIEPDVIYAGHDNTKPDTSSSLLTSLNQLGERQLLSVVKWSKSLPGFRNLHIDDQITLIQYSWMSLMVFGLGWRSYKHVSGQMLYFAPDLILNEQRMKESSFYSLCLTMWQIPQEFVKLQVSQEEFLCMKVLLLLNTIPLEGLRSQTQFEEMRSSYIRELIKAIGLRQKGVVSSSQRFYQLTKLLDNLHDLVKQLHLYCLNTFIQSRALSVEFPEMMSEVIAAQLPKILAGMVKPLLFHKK

[8] = target: Sodium-dependent dopamine transporter (Homo sapiens, UniProt Q01959)
[9] = target: Sodium-dependent serotonin transporter (Homo sapiens, UniProt P31645)
[10] = target: T4, Glucocorticoid receptor (Homo sapiens, UniProt P04150)
T4 sequence (P04150 whole entry): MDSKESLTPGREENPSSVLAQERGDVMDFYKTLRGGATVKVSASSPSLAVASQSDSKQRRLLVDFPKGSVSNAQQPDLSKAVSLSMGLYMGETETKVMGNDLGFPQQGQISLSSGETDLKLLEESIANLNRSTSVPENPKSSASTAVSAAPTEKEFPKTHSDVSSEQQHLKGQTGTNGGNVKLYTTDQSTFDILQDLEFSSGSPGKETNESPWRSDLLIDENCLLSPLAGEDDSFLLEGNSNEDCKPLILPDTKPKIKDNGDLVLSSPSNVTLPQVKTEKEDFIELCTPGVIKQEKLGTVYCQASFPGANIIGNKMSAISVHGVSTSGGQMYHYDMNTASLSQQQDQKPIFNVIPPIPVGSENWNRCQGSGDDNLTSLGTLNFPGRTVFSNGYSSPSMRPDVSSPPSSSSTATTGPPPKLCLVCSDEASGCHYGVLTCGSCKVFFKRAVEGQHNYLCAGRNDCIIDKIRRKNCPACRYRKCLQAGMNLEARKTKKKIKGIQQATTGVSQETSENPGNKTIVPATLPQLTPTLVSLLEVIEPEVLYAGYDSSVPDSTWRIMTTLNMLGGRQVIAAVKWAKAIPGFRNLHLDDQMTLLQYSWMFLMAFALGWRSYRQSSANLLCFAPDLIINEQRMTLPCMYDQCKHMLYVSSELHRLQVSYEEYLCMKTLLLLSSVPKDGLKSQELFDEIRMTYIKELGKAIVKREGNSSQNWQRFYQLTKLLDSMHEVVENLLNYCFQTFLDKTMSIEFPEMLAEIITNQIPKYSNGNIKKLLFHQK
Further: assay procedure not described here.

D(1A) dopamine receptor, sequence (P21728 whole entry): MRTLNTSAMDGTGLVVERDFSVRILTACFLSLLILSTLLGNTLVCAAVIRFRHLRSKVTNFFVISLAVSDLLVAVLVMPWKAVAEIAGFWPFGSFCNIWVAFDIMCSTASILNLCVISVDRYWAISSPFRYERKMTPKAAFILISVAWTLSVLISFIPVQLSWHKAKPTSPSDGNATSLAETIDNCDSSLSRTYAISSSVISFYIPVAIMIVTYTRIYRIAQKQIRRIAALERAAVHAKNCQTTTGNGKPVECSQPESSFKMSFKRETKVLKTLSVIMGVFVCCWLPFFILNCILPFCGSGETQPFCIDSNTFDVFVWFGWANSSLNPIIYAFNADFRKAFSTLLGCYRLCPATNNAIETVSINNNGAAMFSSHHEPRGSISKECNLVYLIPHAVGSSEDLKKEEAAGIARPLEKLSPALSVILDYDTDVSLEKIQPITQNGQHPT
Sodium-dependent serotonin transporter, sequence (P31645 whole entry): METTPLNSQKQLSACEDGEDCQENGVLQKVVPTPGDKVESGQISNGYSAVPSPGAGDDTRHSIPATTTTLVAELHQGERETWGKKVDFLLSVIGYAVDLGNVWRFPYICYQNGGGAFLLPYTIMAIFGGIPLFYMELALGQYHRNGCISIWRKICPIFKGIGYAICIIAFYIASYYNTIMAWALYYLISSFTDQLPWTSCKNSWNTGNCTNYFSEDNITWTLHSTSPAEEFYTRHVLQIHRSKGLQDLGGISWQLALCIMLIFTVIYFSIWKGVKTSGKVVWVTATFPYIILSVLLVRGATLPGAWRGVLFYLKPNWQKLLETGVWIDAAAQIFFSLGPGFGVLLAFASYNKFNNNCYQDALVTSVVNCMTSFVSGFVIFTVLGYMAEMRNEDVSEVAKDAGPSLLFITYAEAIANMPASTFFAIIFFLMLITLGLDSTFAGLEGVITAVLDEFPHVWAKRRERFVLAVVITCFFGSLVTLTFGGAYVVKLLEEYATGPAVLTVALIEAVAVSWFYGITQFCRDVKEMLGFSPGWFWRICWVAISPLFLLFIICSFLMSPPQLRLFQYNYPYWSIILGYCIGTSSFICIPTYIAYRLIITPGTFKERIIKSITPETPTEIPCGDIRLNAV
Sodium-dependent dopamine transporter, sequence (Q01959 whole entry): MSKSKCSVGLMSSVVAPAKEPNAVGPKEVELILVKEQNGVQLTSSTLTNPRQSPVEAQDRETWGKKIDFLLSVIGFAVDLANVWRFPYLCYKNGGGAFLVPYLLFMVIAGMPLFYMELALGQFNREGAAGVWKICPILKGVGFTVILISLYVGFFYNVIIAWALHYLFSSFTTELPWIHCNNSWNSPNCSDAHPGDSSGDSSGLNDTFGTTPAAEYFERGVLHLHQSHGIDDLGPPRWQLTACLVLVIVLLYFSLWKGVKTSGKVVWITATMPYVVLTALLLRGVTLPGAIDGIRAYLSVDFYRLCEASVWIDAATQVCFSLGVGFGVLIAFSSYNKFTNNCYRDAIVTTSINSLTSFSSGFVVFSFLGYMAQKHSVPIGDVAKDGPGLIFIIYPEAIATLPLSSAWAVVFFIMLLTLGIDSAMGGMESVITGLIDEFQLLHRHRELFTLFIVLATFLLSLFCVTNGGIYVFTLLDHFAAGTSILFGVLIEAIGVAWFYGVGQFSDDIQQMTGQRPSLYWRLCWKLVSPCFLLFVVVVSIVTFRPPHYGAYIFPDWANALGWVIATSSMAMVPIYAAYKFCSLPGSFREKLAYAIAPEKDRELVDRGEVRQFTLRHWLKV
3',5'-cyclic-AMP phosphodiesterase 4D, sequence (Q08499 whole entry): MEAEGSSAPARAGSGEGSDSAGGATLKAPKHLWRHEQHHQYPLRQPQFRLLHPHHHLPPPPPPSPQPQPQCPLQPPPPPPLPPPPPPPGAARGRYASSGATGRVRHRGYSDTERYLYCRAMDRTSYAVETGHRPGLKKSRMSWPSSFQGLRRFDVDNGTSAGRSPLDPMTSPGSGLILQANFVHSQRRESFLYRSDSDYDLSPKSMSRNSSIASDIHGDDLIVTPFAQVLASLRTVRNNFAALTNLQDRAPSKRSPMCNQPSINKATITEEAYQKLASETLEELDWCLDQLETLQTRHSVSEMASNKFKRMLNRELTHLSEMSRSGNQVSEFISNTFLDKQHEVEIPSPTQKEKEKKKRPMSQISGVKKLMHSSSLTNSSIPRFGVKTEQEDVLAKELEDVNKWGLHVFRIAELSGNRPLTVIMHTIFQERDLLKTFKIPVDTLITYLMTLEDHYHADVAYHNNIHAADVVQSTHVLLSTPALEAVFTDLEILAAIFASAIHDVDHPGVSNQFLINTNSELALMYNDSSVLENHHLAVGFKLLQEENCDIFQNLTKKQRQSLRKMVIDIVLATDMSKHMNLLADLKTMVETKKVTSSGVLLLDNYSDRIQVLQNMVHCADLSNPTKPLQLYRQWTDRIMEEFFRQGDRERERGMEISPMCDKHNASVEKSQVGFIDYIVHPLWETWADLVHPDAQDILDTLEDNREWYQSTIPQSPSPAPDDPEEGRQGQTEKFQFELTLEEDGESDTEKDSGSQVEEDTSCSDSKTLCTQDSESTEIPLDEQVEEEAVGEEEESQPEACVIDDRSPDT
Gamma-aminobutyric acid receptor subunit alpha-1, sequence (P62813 whole entry): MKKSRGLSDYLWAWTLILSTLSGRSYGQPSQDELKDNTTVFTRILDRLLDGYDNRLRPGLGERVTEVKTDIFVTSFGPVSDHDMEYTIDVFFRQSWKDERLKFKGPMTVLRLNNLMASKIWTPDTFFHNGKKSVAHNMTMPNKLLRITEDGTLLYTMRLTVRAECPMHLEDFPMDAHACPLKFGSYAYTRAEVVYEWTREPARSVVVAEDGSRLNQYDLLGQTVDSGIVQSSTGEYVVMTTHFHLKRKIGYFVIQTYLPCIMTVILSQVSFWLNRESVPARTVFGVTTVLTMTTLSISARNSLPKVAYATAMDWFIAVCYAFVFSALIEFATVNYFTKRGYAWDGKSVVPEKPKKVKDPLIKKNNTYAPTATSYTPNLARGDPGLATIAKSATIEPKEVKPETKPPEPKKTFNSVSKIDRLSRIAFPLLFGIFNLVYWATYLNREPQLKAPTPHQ
Melanocortin receptor 3, sequence (P41968 whole entry): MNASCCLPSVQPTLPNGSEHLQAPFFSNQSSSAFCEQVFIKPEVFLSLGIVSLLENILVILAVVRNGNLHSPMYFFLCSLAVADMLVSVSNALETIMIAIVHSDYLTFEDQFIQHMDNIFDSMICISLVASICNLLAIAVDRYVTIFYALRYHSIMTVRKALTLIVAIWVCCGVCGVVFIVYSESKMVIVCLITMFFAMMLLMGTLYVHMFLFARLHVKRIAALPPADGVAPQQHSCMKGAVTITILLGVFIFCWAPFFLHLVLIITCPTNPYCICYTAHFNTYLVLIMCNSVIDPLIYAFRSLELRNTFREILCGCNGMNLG

Structure (SMILES)	AC50 [1] [µM]	AC50 [2] [µM]	AC50 [3] [µM]	AC50 [4] [µM]	AC50 [5] [µM]	AC50 [6] [µM]	AC50 [7] [µM]	AC50 [8] [µM]	AC50 [9] [µM]	AC50 [10] [µM]
CCCC(CCC)C(=O)O[C@H]1C[C@H]2CC[C@@H](C1)[N+]2(C)C [ANISOTROPINE]	> 30	> 30	> 30	> 30	> 30	> 30	> 30	> 30	> 30	
CCCCCOC(=O)Nc1nc(=O)n([C@@H]2O[C@H](C)[C@@H](O)[C@H]2O)cc1F [CAPECITABINE]	> 30	> 30	> 30	> 30	> 30	> 30	> 30	> 30	> 30	
CCOc1cc(N)c([N+](=O)[O-])cc1C(=O)NC1CCN(CC2CC=CCC2)CC1 (stereo not given) [CINITAPRIDE]	> 30	> 30	> 30	14	> 30	> 30		20	14	> 30
CN1C(=O)CC(=O)N(c2ccccc2)c2cc(Cl)ccc21 [CLOBAZAM]	> 10		> 10	0.3	> 10	10	> 10	> 10	> 10	> 10
[H]/N=C(/N)c1ccc(NCc2nc3cc(C(=O)N(CCC(=O)O)c4ccccn4)ccc3n2C)cc1 [DABIGATRAN]	> 30	> 30	> 30	> 30	> 30	> 30	> 30	> 30	> 30	
C#CC1(OC(N)=O)CCCCC1 [ETHINAMATE]	> 10		> 10	> 10	> 10	> 30	> 10	> 10	> 10	> 10
CCC1(C2=CCCCCC2)C(=O)NC(=O)NC1=O [HEPTABARBITAL]	> 10		> 10	> 10	> 10	> 30	> 10	> 10	> 10	> 10
O=C(CCCCC(=O)Nc1c(I)cc(I)c(C(=O)O)c1I)Nc1c(I)cc(I)c(C(=O)O)c1I [IODIPAMIDE]	> 10		> 30	> 10	> 10	> 30	> 10	> 10	> 10	> 10
CC(C)[N+](C)(CCC(C(N)=O)(c1ccccc1)c1ccccc1)C(C)C [ISOPROPAMIDE]	> 10		> 10	> 10	> 10	> 30	> 10	> 10	> 10	> 10
CN1CC[C@]23CCCC[C@H]2[C@H]1Cc1ccc(O)cc13 [LEVORPHANOL]	> 10		> 30	> 10	> 10	> 30	> 10	> 30	0.173	
C#C[C@]1(O)CC[C@H]2[C@@H]3CCC4=CCCC[C@@H]4[C@H]3CC[C@@]21C [LYNESTRENOL]	> 30	> 30	> 30	> 30	> 30	> 30		> 30	> 30	> 30
CC1=CC(=O)c2ccccc2C1=O [MENADIONE]	> 10		> 10	> 10	> 10	> 30	> 30	> 10	> 10	> 30
CN1CCCN=C1COC(=O)C(O)(c1ccccc1)C1CCCCC1 (stereo not given) [OXYPHENCYCLIMINE]	> 10		> 10	> 10	> 10	> 30	> 10	> 30	> 30	> 10
CC(Cc1ccccc1)NCCC(c1ccccc1)c1ccccc1 (stereo not given) [PRENYLAMINE]	> 10	> 30	> 30	> 10	> 30	> 30		4.7	17.6	> 30
Cc1nc2ccc(CN(C)c3ccc(C(=O)N[C@@H](CCC(=O)O)C(=O)O)s3)cc2c(=O)[nH]1 [RALTITREXED]	> 30	> 10	> 30	> 30	> 30	> 30	> 30	> 30	> 30	
O=C1NCCN1CCN1CCC(c2cn(-c3ccc(F)cc3)c3ccc(Cl)cc23)CC1 [SERTINDOLE]		> 30	> 30	> 30	12	20	> 30	1.7	3.4	
COc1ccc(C(=O)N2CCN(c3ccc4c(c3)CCC(=O)N4)CC2)cc1OC [VESNARINONE]	> 30	> 30	> 30	> 30	> 30	> 30		> 30	21	8
CN1CCN(C(=O)OC2c3nccnc3C(=O)N2c2ccc(Cl)cn2)CC1 (stereo not given) [ZOPICLONE]	> 10	> 30	> 10	0.093	> 30	> 30	> 30	> 30	> 30	
